Converted amounts (≈) assume the structure as drawn.
Legend:
Format in all cases: cell-based
Aspergillus brasiliensis = test: Antimicrobial activity (MIC); conditions: Aspergillus brasiliensis, DSM1988; Strain ID DSM 1988; potato dextrose broth pH 3.8; read-out: Minimal Inhibitory Concentration (MIC)
Bacillus cereus = test: Antimicrobial activity (MIC); conditions: Bacillus cereus; Strain ID DSM4490; potato dextrose broth pH 3.8; read-out: Minimal Inhibitory Concentration (MIC)
Botrytis cinerea = test: Antimicrobial activity (MIC); conditions: Botrytis cinerea, DSM5145; Strain ID DSM 5145; potato dextrose broth pH 3.8; read-out: Minimal Inhibitory Concentration (MIC)
[1] = system: Brettanomyces naardenensis; test: Antimicrobial activity (MIC); conditions: Brettanomyces naardenensis, CBS6115; Strain ID CBS 6115; potato dextrose broth pH 3.8; read-out: Minimal Inhibitory Concentration (MIC)
Candida albicans = test: Antimicrobial activity (MIC); conditions: Candida albicans; Strain ID ATCC10231; potato dextrose broth pH 3.8; read-out: Minimal Inhibitory Concentration (MIC)
[2] = system: Cladosporium cladosporioides; test: Antimicrobial activity (MIC); conditions: Cladosporium cladosporioides; Strain ID DSM19653; potato dextrose broth pH 3.8; read-out: Minimal Inhibitory Concentration (MIC)
Clostridium perfringens = test: microbe, parasite or virus in culture; conditions: Clostridium perfringens, DSM756, pH 3.8, read-out: Minimal Inhibitory Concentration (MIC)
Cutibacterium acnes = test: Antimicrobial activity (MIC); conditions: Cutibacterium acnes, DSM1897; Strain ID DSM 1897; potato dextrose broth pH 3.8; read-out: Minimal Inhibitory Concentration (MIC)
Enterobacter cloacae = test: Antimicrobial activity (MIC); conditions: Enterobacter cloacae, DSM6234; Strain ID DSM 6234; potato dextrose broth pH 3.8; read-out: Minimal Inhibitory Concentration (MIC)
Enterococcus faecalis = test: Antimicrobial activity (MIC); conditions: Enterococcus faecalis, ATCC7080; Strain ID ATCC 7080; potato dextrose broth pH 3.8; read-out: Minimal Inhibitory Concentration (MIC)
[3] = system: Fusobacterium nucleatum subsp. vincentii; test: Antimicrobial activity (MIC); conditions: Fusobacterium nucleatum, DSM19507; Strain ID DSM 19507; potato dextrose broth pH 3.8; read-out: Minimal Inhibitory Concentration (MIC)
[4] = system: Gluconacetobacter liquefaciens; test: Antimicrobial activity (MIC); conditions: Gluconacetobacter liquefaciens, DSM5603; Strain ID DSM 5603; potato dextrose broth pH 3.8; read-out: Minimal Inhibitory Concentration (MIC)
[5] = system: Lactobacillus paracasei ssp. paracasei; test: Antimicrobial activity (MIC); conditions: Lacticaseibacillus paracasei, DSM46331; Strain ID DSM 46331; potato dextrose broth pH 3.8; read-out: Minimal Inhibitory Concentration (MIC)
[6] = system: Lactobacillus plantarum ssp. plantarum; test: Antimicrobial activity (MIC); conditions: Lactiplantibacillus plantarum, DSM20174; Strain ID DSM 20174; potato dextrose broth pH 3.8; read-out: Minimal Inhibitory Concentration (MIC)
Leuconostoc lactis = test: Antimicrobial activity (MIC); conditions: Leuconostoc lactis, DSM20202; Strain ID DSM 20202; potato dextrose broth pH 3.8; read-out: Minimal Inhibitory Concentration (MIC)
[7] = system: Leuconostoc mesenteroides ssp. mesenteroides; test: Antimicrobial activity (MIC); conditions: Leuconostoc mesenteroides, DSM20343; Strain ID DSM 20343; potato dextrose broth pH 3.8; read-out: Minimal Inhibitory Concentration (MIC)
Malassezia furfur = test: Antimicrobial activity (MIC); conditions: Malassezia furfur, DSM6170; Strain ID DSM 6170; potato dextrose broth pH 3.8; read-out: Minimal Inhibitory Concentration (MIC)
[8] = system: Pasteurella multocida ssp. multocida; test: Antimicrobial activity (MIC); conditions: Pasteurella multocida, DSM16031; Strain ID DSM 16031; potato dextrose broth pH 3.8; read-out: Minimal Inhibitory Concentration (MIC)
Penicillium expansum = test: Antimicrobial activity (MIC); conditions: Penicillium expansum, DSM62841; Strain ID DSM 62841; potato dextrose broth pH 3.8; read-out: Minimal Inhibitory Concentration (MIC)
[9] = system: Phanerochaete chrysosporium; test: Antimicrobial activity (MIC); conditions: Phanerodontia chrysosporium, DSM1556; Strain ID DSM 1556; potato dextrose broth pH 3.8; read-out: Minimal Inhibitory Concentration (MIC)
Pseudomonas aeruginosa = test: Antimicrobial activity (MIC); conditions: Pseudomonas aeruginosa, DSM1117; Strain ID DSM 1117; potato dextrose broth pH 3.8; read-out: Minimal Inhibitory Concentration (MIC)
Pseudomonas fluorescens = test: Antimicrobial activity (MIC); conditions: Pseudomonas fluorescens; Strain ID DSM50337; potato dextrose broth pH 3.8; read-out: Minimal Inhibitory Concentration (MIC)
Saccharomyces cerevisiae = test: Antimicrobial activity (MIC); conditions: Saccharomyces cerevisiae, DSM2548; Strain ID DSM 2548; potato dextrose broth pH 3.8; read-out: Minimal Inhibitory Concentration (MIC)
Staphylococcus aureus = test: Antimicrobial activity (MIC); conditions: Staphylococcus aureus, DSM2569; Strain ID DSM 2569; potato dextrose broth pH 3.8; read-out: Minimal Inhibitory Concentration (MIC)
Streptococcus mutans = test: Antimicrobial activity (MIC); conditions: Streptococcus mutans, DSM20523; Strain ID DSM 20523; potato dextrose broth pH 3.8; read-out: Minimal Inhibitory Concentration (MIC)
Yarrowia lipolytica = test: Antimicrobial activity (MIC); conditions: Yarrowia lipolytica, DSM70561; Strain ID DSM 70561; potato dextrose broth pH 3.8; read-out: Minimal Inhibitory Concentration (MIC)
Zygosaccharomyces rouxii = test: Antimicrobial activity (MIC); conditions: Zygosaccharomyces rouxii, DSM7525; Strain ID DSM 7525; potato dextrose broth pH 3.8; read-out: Minimal Inhibitory Concentration (MIC)

SMILES: C[C@@H]1O[C@@H](O[C@H]2[C@H](O[C@H]3CC[C@@]4(C)[C@@H](CC[C@]5(C)[C@@H]4CC=C4[C@@H]6CC(C)(C)CC[C@]6(C(=O)O)CC[C@]45C)[C@]3(C)CO)OC[C@H](O)[C@@H]2O)[C@H](O)[C@H](O[C@@H]2OC[C@@H](O)[C@H](O)[C@H]2O)[C@H]1O [A, Sapindoside B [30994-75-3]]
- MIC (Aspergillus brasiliensis): > 80 µg/mL
- MIC (Bacillus cereus): > 80 µg/mL
- MIC (Botrytis cinerea): > 80 µg/mL
- MIC [1]: > 80 µg/mL
- MIC (Candida albicans): > 80 µg/mL
- MIC [2]: > 80 µg/mL
- MIC (Clostridium perfringens): > 80 µg/mL
- MIC (Cutibacterium acnes): > 80 µg/mL
- MIC (Enterobacter cloacae): > 80 µg/mL
- MIC (Enterococcus faecalis): > 80 µg/mL
- MIC [3]: 80 µg/mL (≈ 90.6 µM)
- MIC [4]: 140 µg/mL (≈ 159 µM)
- MIC [5]: > 80 µg/mL
- MIC [6]: 40 µg/mL (≈ 45.3 µM)
- MIC (Leuconostoc lactis): 80 µg/mL (≈ 90.6 µM)
- MIC [7]: > 80 µg/mL
- MIC (Malassezia furfur): > 80 µg/mL
- MIC [8]: > 80 µg/mL
- MIC (Penicillium expansum): > 500 µg/mL
- MIC [9]: > 80 µg/mL
- MIC (Pseudomonas aeruginosa): > 80 µg/mL
- MIC (Pseudomonas fluorescens): > 80 µg/mL
- MIC (Saccharomyces cerevisiae): > 80 µg/mL
- MIC (Staphylococcus aureus): > 80 µg/mL
- MIC (Streptococcus mutans): > 80 µg/mL
- MIC (Yarrowia lipolytica): > 80 µg/mL
- MIC (Zygosaccharomyces rouxii): 500 µg/mL (≈ 566 µM)
